Test results: paper PMC11489133, “Obicetrapib exhibits favorable physiochemical and pharmacokinetic properties compared to previous cholesteryl ester transfer protein inhibitors: An integrated summary of results from non‐human primate studies and clinical trials” (Pharmacology Research & Perspectives, 2024)
Read-outs that look alike come from different tables or passages of the source.

How the values were obtained:
[1] = cited from earlier work
[2] = pH 7.4; cited from earlier work
[3] = cited from earlier work; remark: listed apart in the source
[4] = cited from earlier work; remark: listed apart in the source
[5] = absorption, metabolism and excretion study of a single 10 mg dose of 14C-obicetrapib (NCT02408055, TA‐8995‐07); format: in vivo, humans; settings: male, human, in vivo
Method: Figure 2 illustrates the obicetrapib (TA‐8995) M1 detected above the LLOQ (>1% radioactivity) in human plasma expressed as the percent radioactivity profiled. A study (NCT02408055) was conducted in healthy male participants (n = 6) to assess the absorption, metabolism, and excretion of a single dose of 10 mg of ^14C‐obicetrapib (TA‐8995‐07 CSR, NewAmsterdam Pharma). One of the objectives of the study was to determine the chemical structure of ^14C‐obicetrapib M1 that represent ≥10% of total radioactivity in plasma. The participants received 10 mL ^14C‐obicetrapib oral suspension, containing 10 mg and 100 μCi of ^14C‐obicetrapib in the fasted state. Clinical samples for analysis were selected based upon the levels of radioactivity present as determined by liquid scintillation counting and were stored at below −50°C (nominally −80°C) when not in use. Plasma samples from the participants were sequentially extracted with acetonitrile at five time points. The resulting extracts were concentrated by evaporation and reconstituted in mobile phase HPLC prior to analysis by radio‐HPLC. All samples were analyzed by liquid scintillation counting to evaluate the recovery of radioactivity. The profiles of the radiolabeled components in each sample of plasma were determined by HPLC analysis with off‐line radio‐detection. Selected samples from each matrix were then further analyzed by high‐resolution mass spectrometry to investigate the identity of M1. In plasma, the predominant metabolite component was unchanged obicetrapib (~79% of total drug‐related exposure), and the most abundant plasma M1 were M1 and P9 of which each accounted for ~4% of total exposure (Figure 2). No significant differences in the metabolite profiles were observed across the samples obtained from the six participants (TA‐8995‐07 CSR, NewAmsterdam Pharma).

[6] = parameters: method as in PMID 28847206; settings: added to high‐intensity statin therapy, compared to placebo; cited from earlier work

percent radioactivity profiled in human plasma [5] | Compound | increase of C max by a high‐fat meal compared to fasting conditions [1] [fold] | cLogDpH7.4 [2] | PSA [3] [Å^2] | accumulation in adipose tissue ([4]; human, in vivo) | other results
 | CCC(CC)CC1(C(=O)Nc2ccccc2SC(=O)C(C)C)CCCCC1 [dalcetrapib, Dalcetrapib] | 2.3 | 7.2 | 46 |  | increase of AUC(0–36) by a high‐fat meal compared to fasting conditions [1]: 1.6 fold; t 1/2 ([4]; once daily doses between 300 and 1200 mg, short‐term investigations): 30 h; accumulation in adipose tissue ([4]; other CETP inhibitors): no accumulation in adipose tissue
 | Cc1cc(C)c2c(c1)[C@@H](N(Cc1cc(C(F)(F)F)cc(C(F)(F)F)c1)c1nnn(C)n1)CCCN2C[C@H]1CC[C@H](C(=O)O)CC1 [evacetrapib, Evacetrapib] | 1.5 | 7.9 | 87 | no accumulation in adipose tissue | increase of AUC(τ) by a high‐fat meal compared to fasting conditions [1]: 1.4 fold; t 1/2 ([4]; once daily doses between 10 and 600 mg for up to 15 days): 40 h
approx. 4% | CCC1CC(N(Cc2cc(C(F)(F)F)cc(C(F)(F)F)c2)c2ncc(OCCCC(=O)O)cn2)c2cc(C(F)(F)F)ccc2N1 (stereo not drawn) [M1] |  |  |  |  | 
 | CCOC(=O)N1c2ccc(C(F)(F)F)cc2[C@@H](N(Cc2cc(C(F)(F)F)cc(C(F)(F)F)c2)C(=O)OC)C[C@H]1CC [torcetrapib, Torcetrapib] |  | 7.6 | 59 | no accumulation in adipose tissue | t 1/2 ([4]; single ascending dose study): 211 h
approx. 4% | O=C(O)COc1cnc(NCc2cc(C(F)(F)F)cc(C(F)(F)F)c2)nc1 [P9] |  |  |  |  | 
 | COc1cc(F)c(C(C)C)cc1-c1ccc(C(F)(F)F)cc1CN1C(=O)O[C@H](c2cc(C(F)(F)F)cc(C(F)(F)F)c2)[C@@H]1C [anacetrapib, Anacetrapib] |  | 9.2 | 39 |  | reduced risk of major adverse coronary events [6]: 9%; increase in plasma levels, fed versus fasted state ([1]; in vivo): 2-8 fold; increase of AUC (0‐∞) by a high‐fat meal compared to a fasting state ([1]; in vivo): 6 fold; increase of C max by a high‐fat meal compared to a fasting state ([1]; in vivo): 8 fold; time detected in plasma after the last treatment dose ([4]; 76‐week DEFINE trial): up to 4 years; half‐life ([4]; human, in vivo): up to 80 h; accumulation in adipose tissue ([4]; subcutaneous adipose biopsy measurements, compared to plasma levels): accumulated in adipose tissue at much higher concentrations and for a prolonged period
